Source: patent US20230002736A1, “ENDODERM DIFFERENTIATION FROM PLURIPOTENT STEM CELL LINES” (priority 2019, published 2023)
Entries after “also recorded” stand apart in the source; their conditions may differ. Where two headings read alike, the source gives them in different places.

Columns and labels:
iPSC lines [1] = format: cell-based; conditions: protocol without doxycycline
iPSC line AS7192 = test: Endoderm induction compound comparison, cell number at day 7, line AS7192; format: cell-based, human; conditions: 1 μM concentration
Description: FIG. 2. Doxycycline Enhanced Endoderm. A: Immunofluorescence and bright-field images showing induction of iPSC line 1023-5 to definitive endoderm (DE) with Hoechst 33342 nuclear staining in blue, and antibody staining in green for OCT3/4, FOXA, HNF1p and CXCR4 with AlexaFluor 488 secondary (green) antibody. […] (scale bar=[…]); B: Compound Screen showing other antibiotics and other compounds affecting the mitochondria were compared to doxycycline. […] The number of cells is shown measured seven days after induction compared to the plating density at day 0 (n=2); C: Comparison of Tetracycline Derivatives in iPSC lines AG02261. […] The number of cells is shown measured seven days after induction compared to the plating density at day 0. […] FIG. 9. Comparison of Tetracycline Derivatives and Other Compounds in additional cell line. A: Induction of iPSC lines AS7192 was performed. […] The number of cells was measured seven days after induction compared to the plating density at day 0. […] Induction of Definitive Endoderm (days 1-7). iPSCs were plated on 6-, 12-, or 96-well Matrigel-coated plates at different densities for differentiation in iPSC media containing 10 μM Y-27632 and 2 μM doxycycline. For example, typical plating density in a single well of a 6-well plate was 500,000 cells or 20,000 cells per well for 96-well plates. […]

iPSC line AG02261 = test: Endoderm induction compound comparison, cell number at day 7, line AG02261; format: cell-based, human; conditions: for response in compound screen, number of cells seven days after induction: cell line AG02261, FIG. 2B; for effect on endoderm induction at high concentration: AG02261, 10 μM concentration
Description: FIG. 2. Doxycycline Enhanced Endoderm. A: Immunofluorescence and bright-field images showing induction of iPSC line 1023-5 to definitive endoderm (DE) with Hoechst 33342 nuclear staining in blue, and antibody staining in green for OCT3/4, FOXA, HNF1p and CXCR4 with AlexaFluor 488 secondary (green) antibody. […] (scale bar=[…]); B: Compound Screen showing other antibiotics and other compounds affecting the mitochondria were compared to doxycycline. […] The number of cells is shown measured seven days after induction compared to the plating density at day 0 (n=2); C: Comparison of Tetracycline Derivatives in iPSC lines AG02261. […] The number of cells is shown measured seven days after induction compared to the plating density at day 0. […] Induction of Definitive Endoderm (days 1-7). iPSCs were plated on 6-, 12-, or 96-well Matrigel-coated plates at different densities for differentiation in iPSC media containing 10 μM Y-27632 and 2 μM doxycycline. For example, typical plating density in a single well of a 6-well plate was 500,000 cells or 20,000 cells per well for 96-well plates. The differentiation process consisted of one week of RPMI media supplemented with Gem21 NeuroPlex without insulin at 1× (supplied at 50×, Gemini Bio-Products West Sacramento, Calif., catalog #400-962, or supplemented with Gibco B27 without insulin at 1×), Glutagro at 1× (Corning, Manassas, Va., catalog #25-015-CI, non-essential amino acids at 1× (Gibco, catalog #11-140-050), sodium butyrate (0.5 mM, Sigma Aldrich, catalog #B5887) and recombinant human Activin A (100 ng/mL, Peprotech, Rocky Hill, N.J., catalog #120-14E) for 7 days. On day 1, 2% KnockOut Serum Replacement (KSR; Gibco Catalog #10828028), CHIR-99021 (10 ng/mL, Selleckchem catalog #S2924), PI-103 (10 ng/mL,Selleckchem catalog #S1038), recombinant human BMP4 (10 ng/mL, Peprotech catalog #120-05ET) and FGF2 (20 ng/mL, Peprotech catalog #100-18B) were added to the media. On day 2, 1% KSR, PI-103 (10 ng/mL) and BMP4 (10 ng/mL) and FGF2 (20 ng/mL) and on day 3, 0.2% KSR and PI-103 (10 ng/mL) were added to the media. Doxycycline hyclate (Acros Organics catalog #446061000) was added throughout definitive endoderm induction starting on day 0 (passage day) at various concentrations, as described herein, with a standard concentration being 2 μM. These steps can be performed at normal room oxygen at about 20% or at low oxygen between 4 and 6%.

iPSC lines [2] = format: cell-based; conditions: for ability to enhance survival of cells during induction to endoderm, other antibiotic classes compared to doxycycline: FIGS. 2B and 9B; for effect of adding Y-27632 to the protocol including doxycycline: cell lines still difficult to induce
Description: Induction of Definitive Endoderm (days 1-7). iPSCs were plated on 6-, 12-, or 96-well Matrigel-coated plates at different densities for differentiation in iPSC media containing 10 μM Y-27632 and 2 μM doxycycline. For example, typical plating density in a single well of a 6-well plate was 500,000 cells or 20,000 cells per well for 96-well plates. The differentiation process consisted of one week of RPMI media supplemented with Gem21 NeuroPlex without insulin at 1× (supplied at 50×, Gemini Bio-Products West Sacramento, Calif., catalog #400-962, or supplemented with Gibco B27 without insulin at 1×), Glutagro at 1× (Corning, Manassas, Va., catalog #25-015-CI, non-essential amino acids at 1× (Gibco, catalog #11-140-050), sodium butyrate (0.5 mM, Sigma Aldrich, catalog #B5887) and recombinant human Activin A (100 ng/mL, Peprotech, Rocky Hill, N.J., catalog #120-14E) for 7 days. On day 1, 2% KnockOut Serum Replacement (KSR; Gibco Catalog #10828028), CHIR-99021 (10 ng/mL, Selleckchem catalog #S2924), PI-103 (10 ng/mL,Selleckchem catalog #S1038), recombinant human BMP4 (10 ng/mL, Peprotech catalog #120-05ET) and FGF2 (20 ng/mL, Peprotech catalog #100-18B) were added to the media. On day 2, 1% KSR, PI-103 (10 ng/mL) and BMP4 (10 ng/mL) and FGF2 (20 ng/mL) and on day 3, 0.2% KSR and PI-103 (10 ng/mL) were added to the media. Doxycycline hyclate (Acros Organics catalog #446061000) was added throughout definitive endoderm induction starting on day 0 (passage day) at various concentrations, as described herein, with a standard concentration being 2 μM. These steps can be performed at normal room oxygen at about 20% or at low oxygen between 4 and 6%.

Compound: Cc1c[nH]c(-c2cnc(NCCNc3ccc(C#N)cn3)nc2-c2ccc(Cl)cc2Cl)n1 [CHIR99021]
- effect on number of cells in endoderm induction (iPSC lines [1]; addition in the first 24 hours): improved the number of cells in multiple different cell lines

Compound: CN(C)[C@@H]1C(O)=C(C(N)=O)C(=O)[C@@]2(O)C(O)=C3C(=O)c4c(O)ccc(Cl)c4[C@@H](O)[C@H]3C[C@@H]12 [Demeclocycline, demeclocycline]
- ability to rescue endoderm induction compared to doxycycline (iPSC line AS7192): to some extent

Compound: N=C(N)SCCc1ccc(OCc2ccc([N+](=O)[O-])cc2)cc1 [KB-R7943]
- response in compound screen, number of cells seven days after induction (iPSC line AG02261): showed responses at specific doses

Compound: C=C1c2cccc(O)c2C(=O)C2=C(O)[C@]3(O)C(=O)C(C(N)=O)=C(O)[C@@H](N(C)C)[C@@H]3[C@@H](O)[C@H]12 [Methacycline, methacycline]
- effect on endoderm induction at high concentration (iPSC line AG02261): mostly toxicity

Compound: CN(C)c1ccc(O)c2c1C[C@H]1C[C@H]3[C@H](N(C)C)C(O)=C(C(N)=O)C(=O)[C@@]3(O)C(O)=C1C2=O [Minocycline, minocycline]
- effect on endoderm induction at high concentration (iPSC line AG02261): mostly toxicity

Compound: COc1ccc(C[C@H](N)C(=O)N[C@H]2[C@@H](O)[C@H](n3cnc4c(N(C)C)ncnc43)O[C@@H]2CO)cc1 [Puromycin]
- ability to enhance survival of cells during induction to endoderm, other antibiotic classes compared to doxycycline (iPSC lines [2]): only Gentamicin showed a similar statistically significant ability

Compound: N.N.N.N.N.N.N.N.N.N.N.N.N.N.[Cl-].[Cl-].[Cl-].[Cl-].[Cl-].[Cl-].[O-2].[O-2].[Ru+3].[Ru+3].[Ru+4] [Ruthenium Red]
- response in compound screen, number of cells seven days after induction (iPSC line AG02261): showed responses at specific doses

Compound: C[C@@H](N)[C@H]1CC[C@H](C(=O)Nc2ccncc2)CC1 [Y-27632]
- rescue of induction by Y-27632 alone (iPSC lines [1]; resistant lines): does not produce the same robust induction; also recorded: not able to rescue resistant lines
- effect of adding Y-27632 to the protocol including doxycycline (iPSC lines [2]): promoted the efficient and complete differentiation of these cell lines
- effect of adding Y-27632 to the protocol including doxycycline (iPSC lines [2]; listed as Y27632): led to the rescue of additional stem cell lines

Compound: CC1(C)S[C@@H]2[C@H](NC(=O)[C@H](N)c3ccccc3)C(=O)N2[C@H]1C(=O)O [ampicillin]
- ability to enhance survival of cells during induction to endoderm, other antibiotic classes compared to doxycycline (iPSC lines [2]): only Gentamicin showed a similar statistically significant ability

Compound: Gentamicin [Gentamycin]
- number of cells seven days after induction compared to the plating density at day 0 (compound screen) (iPSC lines [2]; antibiotics and mitochondria-affecting compounds compared to doxycycline, FIG. 2B): strong increasing dose response
